From BindingDB's records for doi:10.1016/s0960-894x(98)00444-2 (Wayne State University, 1999)

Molecular target: Prothrombin (Homo sapiens, UniProt P00734)
Test: ChEBML_216950
Experimental: Dissociation constant was evaluated by competitive inhibition of alpha-thrombin using the method of Dixon enzyme assay.

`C1=[N+]2c3ccccc3C=[N+]3c4ccccc4C=[N+]4c5ccccc5C[N](c5ccccc51)[Pd]234` (stereo unspecified) [Palladium analogue] showed a Ki of 170 µM.
